The values below come from patent US20100249071A1, “Modulators of S1P and Methods of Making And Using” (Exelixis, Inc., priority 2009, published 2010).

One test deals with T1, S1P1 (Homo sapiens, UniProt P21453).
T1 construct: host or cells: U2OS
Kind of test: Tango β-arrestin recruitment assay in U2OS cells (Assay 2b). It is filed as cell-based. The source says: (§1) For the Tango™ β-arrestin recruitment assay, the cytoplasmic C-terminus of S1P1 was tethered to the tTA transcriptional activator with a linker that contains a cleavage site for the N1a protease from tobacco etch virus (TEV protease). The C-terminus of the human β-arrestin2 protein was fused to TEV protease. Binding of an agonist recruits the βl -arrestin-TEV fusion protein to the receptor resulting in cleavage of the linker and released of tTA to enter the nucleus and subsequently activated a tTA-dependent luciferase reporter gene.
Assay 2b: Alternatively, U2OS cells expressing the reporter gene and S1P1 (Invitrogen) were added to the wells of a 384-well white opaque bottom assay plate (PerkinElmer) at […]. The cells were serum starved for 48 h in Freestyle medium (Invitrogen). Test compounds were tested at maximum concentrations of 1 μM for the agonist assay. Compounds were diluted in DMSO (10 concentration points, 3-fold each) and added to the assay plate at a 1% final DMSO concentration. The efficacy control was 1 μM S1P (Avanti). For each compound, there were duplicate assay plates and each assay plate had duplicate wells per concentration point. The plate was incubated overnight at 37° C. The GeneBLAzer β-lactamase assay reagent (Invitrogen) was added and the plates were incubated for an additional 2 h at room temperature. Fluorescence was measured using an EnVision plate reader (PerkinElmer, Waltham, Mass.) at an excitation wavelength of 409 nm and emission wavelengths of 460 nm and 530 nm. The emission intensity at each wavelength was background subtracted against wells containing medium only and the F460 nm/F530 nm ratio determined for each concentration of the test compounds. Percent activity was calculated as [(test compound ratio−DMSO ratio)/(positive control ratio−DMSO ratio)*100], where the positive control and DMSO ratios are from cells incubated with the efficacy control 1 μM S1P and 1% DMSO, respectively. The percent activities were plotted against compound concentration to determine EC50 using XLFit (IDBS).

Test [1] deals with T2, hS1P1R (hEdg1) membrane protein (Homo sapiens, UniProt P21453).
T2 construct: purchased Lonza
Kind of test: hS1P1R GTPγS binding assay (Assay 3a). It is filed as biochemical. On the procedure: Assay 3a: The hS1P1R GTPγS binding assay was carried out at room temperature in 96 well non-binding surface assay plates. The reaction in each well contained 4 μg hS1P1R (hEdg1) membrane protein (Lonza), 30 μM GDP, 0.1 nM [^35S]GTPγS, 0.25% fatty acid free BSA, and serially diluted hS1P1R agonist compound in 200 μL assay buffer (25 mM Tris-HCl PH 7.9, 100 mM NaCl, 3 mM MgCl2, and 0.2 mM EGTA). After one hour of incubation, 0.9 mg of WGA (Wheat Germ Agglutinin) SPA beads in 50 μL of assay buffer was added to each well. The SPA beads were spun down after an additional one hour incubation. The radioactivity of the bound GTPγS was counted by reading the assay plate using a MicroBeta.

The next test deals with T3, S1P3 (Homo sapiens, UniProt Q99500).
T3 construct: host or cells: HEK293 (transient transfection)
Kind of test: S1P3 Tango β-arrestin recruitment assay in HEK293 cells (Assay 5). It is filed as cell-based. As to conditions: read-out: Assay 5 EC50.
Source text: as §1
Assay 2a: Frozen HEK293 cells transiently transfected with receptor cDNAs for S1P1 (Invitrogen) are thawed and suspended in 10 mL of Pro293a-CDM culture medium (Invitrogen) supplemented with 4 mM L-Glutamine (Invitrogen), 1× Pen/Strep (100 units/mL penicillin and 100 μg/mL streptomycin, Invitrogen) and 0.1% fatty acid free BSA (Sigma-Aldrich). Cells are added to the wells of a 384-well white opaque bottom assay plate (PerkinElmer) at 3,000-6,000 cells per well and the plate is incubated for approximately 4 h in a 37° C. incubator. Test compounds are tested at maximum concentrations of 10 μM for the agonist assays. Compounds are diluted in DMSO (10 concentration points, 3-fold each) and added to the assay plate at a 1% final DMSO concentration. For each compound, there are duplicate assay plates and each assay plate has duplicate wells per concentration point. The plate is incubated at 37° C. for 30 min. The efficacy control is 5 μM S1P (Avanti). Following agonist addition, the assay plates are incubated in a 37° C. incubator for 16-18 h. Luciferase assay reagent is added and luminescence measured in an EnVision plate reader (PerkinElmer). To determine agonist activity, percent activity is calculated as [(test compound−background)/(positive control−background)*100], where background is the luminescence of the DMSO alone control and the positive control is the luminescence from cells incubated with the efficacy control 5 μM S1P. The percent activities are plotted against compound concentration to determine EC50 using XLFit (IDBS).
This assay was conducted using the procedures described in Assay 2a, replacing S1P1 with S1P3.

In test [2] the target is T4, hS1PR5 (hEdg8) membrane protein (Homo sapiens, UniProt Q9H228).
T4 construct: expressed in transfected cells; host or cells: CHO
As to the kind of experiment: hS1P5R GTPγS binding assay (Assay 4). In kind it is biochemical. The procedure: The hS1PR5 GTPγS binding assay was carried out at room temperature in 96-well non-binding surface assay plates. The reaction in each well contained 5 μg hS1PR5 (hEdg8) membrane protein from CHO cells expressing hS1PR5, 30 μM GDP, 0.1 nM [^35S]GTPγS, 0.25% fatty acid free BSA, and serially-diluted Compound of the Invention in 200 μL assay buffer (25 mM Tris-HCl PH 7.9, 100 mM NaCl, 3 mM MgCl2, and 0.2 mM EGTA). After one hour of incubation, 0.9 mg of WGA (Wheat Germ Agglutinin) SPA beads in 50 μL of assay buffer was added to each well. The SPA beads were spun down after an additional one hour incubation. The radioactivity of the bound GTPγS was counted by reading the assay plate using a MicroBeta.

Where two headings read alike, the source gives them in different places. A value given as a limit tells only on which side of the number the result lay.

T2 sequence (P21453 whole entry): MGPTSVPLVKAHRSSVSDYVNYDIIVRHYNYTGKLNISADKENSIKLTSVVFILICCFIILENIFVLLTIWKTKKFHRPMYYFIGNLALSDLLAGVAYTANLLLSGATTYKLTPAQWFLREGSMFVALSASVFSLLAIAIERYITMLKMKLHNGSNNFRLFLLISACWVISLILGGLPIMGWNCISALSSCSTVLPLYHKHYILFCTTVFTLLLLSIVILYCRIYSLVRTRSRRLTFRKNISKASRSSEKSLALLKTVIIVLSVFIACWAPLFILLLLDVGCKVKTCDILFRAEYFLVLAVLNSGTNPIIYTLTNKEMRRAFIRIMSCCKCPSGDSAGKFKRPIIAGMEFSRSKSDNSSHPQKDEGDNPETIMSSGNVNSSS
T4 sequence (Q9H228 whole entry): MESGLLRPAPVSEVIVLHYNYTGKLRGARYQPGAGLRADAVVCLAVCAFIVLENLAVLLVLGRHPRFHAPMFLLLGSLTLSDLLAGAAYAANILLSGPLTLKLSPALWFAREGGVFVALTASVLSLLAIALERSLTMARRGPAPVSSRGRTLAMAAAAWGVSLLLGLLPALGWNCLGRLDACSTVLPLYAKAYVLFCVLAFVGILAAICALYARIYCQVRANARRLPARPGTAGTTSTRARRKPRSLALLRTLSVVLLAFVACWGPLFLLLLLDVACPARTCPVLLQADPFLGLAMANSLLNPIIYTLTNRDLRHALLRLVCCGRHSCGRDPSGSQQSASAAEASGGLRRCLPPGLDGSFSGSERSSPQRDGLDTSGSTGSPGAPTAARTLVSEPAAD
T1 sequence (P32121 whole entry): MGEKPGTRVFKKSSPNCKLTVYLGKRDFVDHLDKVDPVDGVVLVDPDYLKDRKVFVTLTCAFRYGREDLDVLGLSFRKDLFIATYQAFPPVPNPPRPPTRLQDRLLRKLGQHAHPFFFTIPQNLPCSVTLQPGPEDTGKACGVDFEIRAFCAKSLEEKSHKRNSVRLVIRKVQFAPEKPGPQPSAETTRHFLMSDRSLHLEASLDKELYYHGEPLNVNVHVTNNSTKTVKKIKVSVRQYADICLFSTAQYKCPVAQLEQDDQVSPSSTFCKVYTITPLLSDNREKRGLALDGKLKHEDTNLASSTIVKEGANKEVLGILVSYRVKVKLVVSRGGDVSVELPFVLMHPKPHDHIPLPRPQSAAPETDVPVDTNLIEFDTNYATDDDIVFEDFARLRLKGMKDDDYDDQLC
T1 sequence (P21453 whole entry): as the sequence (P21453 whole entry) above
T3 sequence (P32121 whole entry): as the sequence (P32121 whole entry) above
T3 sequence (Q99500 whole entry): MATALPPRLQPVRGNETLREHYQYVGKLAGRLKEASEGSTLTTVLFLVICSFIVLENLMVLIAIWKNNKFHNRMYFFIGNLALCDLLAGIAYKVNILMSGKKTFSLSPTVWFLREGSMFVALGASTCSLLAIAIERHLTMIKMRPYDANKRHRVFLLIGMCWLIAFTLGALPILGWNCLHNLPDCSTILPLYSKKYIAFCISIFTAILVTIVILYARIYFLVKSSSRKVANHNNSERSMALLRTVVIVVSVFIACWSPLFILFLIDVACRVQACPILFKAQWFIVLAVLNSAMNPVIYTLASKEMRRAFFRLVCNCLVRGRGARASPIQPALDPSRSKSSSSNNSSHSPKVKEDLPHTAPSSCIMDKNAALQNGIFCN

As to `Cc1cc(-c2nnc(-c3cc(F)c(OC[C@H](N)[C@H](C)O)cc3Cl)s2)cnc1NC(C)C` [Entry 66, (2S,3S)-3-amino-4-{[5-chloro-2-fluoro-4-(5-{5-methyl-6-[(1-methylethyl)amino]pyridin-3-yl}-1,3,4-thiadiazol-2-yl)phenyl]oxy}butan-2-ol], the 50% effective concentration (EC50) at S1P1 (* = rEC50 measured rather than EC50, read-out: Assay 2b rEC50 (relative EC50, cells marked *)) was 250 to 2800 nM.

In the case of `N[C@H](CO)COc1cc(Cl)c(-c2nnc(-c3cc(Br)cc(OC(F)(F)F)c3)s2)cc1F` [Entry 28, (2R)-2-amino-3-{[4-(5-{3-bromo-5-[(trifluoromethyl)oxy]phenyl}-1,3,4-thiadiazol-2-yl)-5-chloro-2-fluorophenyl]oxy}propan-1-ol], the EC50 is 50 to 250 nM in test [1], > 10000 nM at S1P3 and 50 to 250 nM at S1P1 (read-out: Assay 2b EC50).

As to `CC(C)N(C)c1cc(-c2nnc(-c3cc(F)c(OC[C@@H](N)CO)cc3Cl)s2)cc(Cl)n1` [Entry 31, (2S)-2-amino-3-{[5-chloro-4-(5-{2-chloro-6-[methyl(1-methylethyl)amino]pyridin-4-yl}-1,3,4-thiadiazol-2-yl)-2-fluorophenyl]oxy}propan-1-ol], the figures for the EC50 (in test [1]; at S1P3; on S1P1 (read-out: Assay 2b EC50)) were 50 to 250 nM, ≤ 250 nM and ≤ 10 nM, respectively.

As for `N[C@H](CO)COc1cc(Cl)c(-c2nnc(-c3ccc(OC(F)(F)F)c(Cl)c3)s2)cc1F` [Entry 8, (2R)-2-amino-3-{[5-chloro-4-(5-{3-chloro-4-[(trifluoromethyl)oxy]phenyl}-1,3,4-thiadiazol-2-yl)-2-fluorophenyl]oxy}propan-1-ol], the half-maximal effective concentration (EC50) in test [1] lay in the range of 50 to 250 nM; at S1P1 (read-out: Assay 2b EC50), 250 to 2800 nM.

For the molecule `N[C@H](CO)COc1cc(Cl)c(-c2nnc(-c3cc(Cl)cc(Br)c3)s2)cc1F` [Entry 23, (2R)-2-amino-3-({4-[5-(3-bromo-5-chlorophenyl)-1,3,4-thiadiazol-2-yl]-5-chloro-2-fluorophenyl}oxy)propan-1-ol], the half-maximal effective concentration (EC50) (in test [1]; at S1P1 (read-out: Assay 2b EC50); in test [2]) was 250 to 2800 nM throughout.

For `N[C@H](CO)COc1cc(Cl)c(-c2nnc(-c3cc(Br)cc(Br)c3)s2)cc1F` [Entry 30, (2R)-2-amino-3-({5-chloro-4-[5-(3,5-dibromophenyl)-1,3,4-thiadiazol-2-yl]-2-fluorophenyl}oxy)propan-1-ol], the EC50 lay in the range of 250 to 2800 nM in test [1], 250 to 2800 nM on S1P1 (read-out: Assay 2b EC50) and 2800 to 10000 nM in test [2].

“(1R,2R)-2-amino-3-{[5-chloro-2-fluoro- 4-(5-{2-methyl-6-[(1- methylethyl)amino]pyridin-4-yl}-1,3,4- thiadiazol-2-yl)phenyl]oxy}-1- methylpropyl dihydrogen phosphate [Entry 100]”: the concentration for a half-maximal effect (EC50) in test [1] is ≤ 10 nM; on S1P1 (read-out: Assay 2b EC50) it was ≤ 10 nM; in test [2] it was 10 to 50 nM.

As for `CC(C)Nc1cc(-c2nnc(-c3cc(F)c(OC[C@H](N)[C@H](C)O)cc3Cl)s2)ccn1` [Entry 58, (2S,3S)-3-amino-4-{[5-chloro-2-fluoro-4-(5-{2-[(1-methylethyl)amino]pyridin-4-yl}-1,3,4-thiadiazol-2-yl)phenyl]oxy}butan-2-ol], the concentration for a half-maximal effect (EC50) in test [1] was 50 to 250 nM; at S1P1 (read-out: Assay 2b EC50), 250 to 2800 nM; in test [2] it was 250 to 2800 nM.

As for `N[C@H](CO)COc1cc(Cl)c(-c2nnc(-c3ccc(OC(F)(F)F)cc3)s2)cc1F` [Entry 7, (2R)-2-amino-3-{[5-chloro-2-fluoro-4-(5-{4-[(trifluoromethyl)oxy]phenyl}-1,3,4-thiadiazol-2-yl)phenyl]oxy}propan-1-ol], the EC50 lay in the range of 50 to 250 nM in test [1] and 250 to 2800 nM on S1P1 (read-out: Assay 2b EC50).

Take `CC(C)Oc1c(Cl)cc(-c2nnc(-c3cc(F)c(OC[C@H](N)CO)cc3Cl)s2)cc1Cl` [Entry 26, (2R)-2-amino-3-{[5-chloro-4-(5-{3,5-dichloro-4-[(1-methylethyl)oxy]phenyl}-1,3,4-thiadiazol-2-yl)-2-fluorophenyl]oxy}propan-1-ol]: the 50% effective concentration (EC50) in test [1] was in the range of 50 to 250 nM; at S1P1 (read-out: Assay 2b EC50) it was 250 to 2800 nM; in test [2], 250 to 2800 nM.

Turning to `CCCOc1ccc(-c2nnc(-c3cc(F)c(OC[C@H](N)CO)cc3Cl)s2)cc1` [Entry 91, (2R)-2-amino-3-[(5-chloro-2-fluoro-4-{5-[4-(propyloxy)phenyl]-1,3,4-thiadiaozl-2-yl}phenyl)oxy]propan-1-ol], the EC50 was 50 to 250 nM in test [1], 250 to 2800 nM on S1P1 (read-out: Assay 2b EC50) and 250 to 2800 nM in test [2].

Regarding `CC(C)N(C)c1ccc(-c2nnc(-c3cc(F)c(OCC(N)CO)cc3Cl)s2)cn1` (stereo not shown) [Entry 36, 2-amino-3-{[5-chloro-2-fluoro-4-(5-{6-[methyl(1-methylethyl)amino]pyridin-3-yl}-1,3,4-thiadiazol-2-yl)phenyl]oxy}propan-1-ol], the EC50 in test [1] is 250 to 2800 nM; on S1P3 it was ≤ 250 nM; at S1P1 (read-out: Assay 2b EC50), ≤ 10 nM.

`NC(CO)COc1cc(Cl)c(-c2nnc(-c3cn4ccsc4n3)s2)cc1F` (stereo not shown) [Entry 4, 2-amino-3-{[5-chloro-2-fluoro-4-(5-imidazo[2,1-b][1,3]thiazol-6-yl-1,3,4-thiadiazol-2-yl)phenyl]oxy}propan-1-ol]: the EC50 is > 10000 nM in test [1] and 50 to 250 nM on S1P1 (read-out: Assay 2b EC50).

In the case of `N[C@H](CO)COc1cc(Cl)c(-c2nnc(-c3cc(-c4ccccc4)c(C(F)(F)F)s3)s2)cc1F` [Entry 84, (2R)-2-amino-3-[(5-chloro-2-fluoro-4-{5-[4-phenyl-5-(trifluoromethyl)-2-thienyl]-1,3,4-thiadiazol-2-yl}phenyl)oxy]propan-1-ol], at S1P1 (read-out: Assay 2b EC50), the half-maximal effective concentration (EC50) lay within 250 to 2800 nM.

Take `CC(C)Oc1cc(Br)cc(-c2nnc(-c3cc(F)c(OC[C@H](N)CO)cc3Cl)s2)c1` [Entry 27, (2R)-2-amino-3-{[4-(5-{3-bromo-5-[(1-methylethyl)oxy]phenyl}-1,3,4-thiadiazol-2-yl)-5-chloro-2-fluorophenyl]oxy}propan-1-ol]: the EC50 fell in the range of 50 to 250 nM in test [1] and 250 to 2800 nM at S1P1 (read-out: Assay 2b EC50).

Regarding `CC(C)Oc1ccc(-c2nnc(-c3cc(F)c(OC[C@H](N)CO)cc3Cl)s2)cc1F` [Entry 42, (2R)-2-amino-3-{[5-chloro-2-fluoro-4-(5-{3-fluoro-4-[(1-methylethyl)oxy]phenyl}-1,3,4-thiadiazol-2-yl)phenyl]oxy}propan-1-ol], the half-maximal effective concentration (EC50) in test [1] was 10 to 50 nM; at S1P1 (read-out: Assay 2b EC50), 50 to 250 nM; in test [2], 50 to 250 nM.
